Reference: patent US12624068B2, “Exon skipping by peptide nucleic acid derivatives” (OliPass Corporation, priority 2016, dated 2026)
[C(1O2)] = modified PNA monomer acting as cytosine, C(pOq) type, 1O2; [A(5)] = modified PNA monomer acting as adenine, A(p) type, p=5; {Fmoc} = N-terminal Fmoc cap; {NH2} = C-terminal amide

Columns and labels:
[1] = test system: complementary 10-mer DNA; experiment: Tm of 10-mer model PNA with complementary 10-mer DNA; assay type: binding; settings: for Tm: 4 μM PNA and 4 μM complementary 10-mer DNA, aqueous buffer pH 7.16, uncorrected; for ΔTm (Tm value - Tm value of PNA 10-1): complementary 10-mer DNA
Experimental: (§1) The 10-mer PNA oligomers in Table 12 were evaluated for their binding affinity for the complementary 10-mer RNA or DNA by measuring Tm values as described below.
(§2) A mixed solution of 4 μM 10-mer PNA oligomer and 4 μM complementary 10-mer DNA or RNA in 4 mL aqueous buffer (pH 7.16, 10 mM sodium phosphate, 100 mM NaCl) in 15 mL polypropylene falcon tube was incubated at 90° C. for a minute and slowly cooled down to ambient temperature. Then the solution was transferred into a 4 mL quartz UV cuvette, and subjected to Tm measurement at 260 nm on a UV/Visible spectrophotometer as described in the prior art [PCT/KR2009/001256] or with minor modifications. The DNA and RNA for Tm measurement were purchased from Bioneer (www.bioneer.com, Dajeon, Republic of Korea) and used without further purification.

[2] = test system: complementary 10-mer RNA; experiment: Tm of 10-mer model PNA with complementary 10-mer RNA; assay type: binding; settings: for Tm: 4 μM PNA and 4 μM complementary 10-mer RNA, aqueous buffer pH 7.16, uncorrected; for ΔTm (Tm value - Tm value of PNA 10-1): complementary 10-mer RNA
Experimental: as §1, §2

[3] = test system: 10-mer complementary DNA; experiment: Tm between PNA derivatives and 10-mer complementary DNA (N- or C-terminal); assay type: binding; settings: uncorrected
Experimental: as §2
PNA derivatives of Formula I were evaluated for their binding affinity for 10-mer DNAs complementarily targeting either the N-terminal or C-terminal. The binding affinity was assessed by the Tm value for the duplex between PNA and 10-mer complementary DNA. The duplex between PNA derivatives and DNAs of full complementarity usually show Tm values too high to be reliably determined in aqueous buffer solution. The aqueous buffer solution tends to boil off during Tm measurement.

[4] = test system: SCN9A mRNA; experiment: SCN9A nested qPCR by SYBR Green in PC3 cells; assay type: cell-based, human; settings: PC3 cells, 24 hours
Experimental: “SCN-ASO 7” was evaluated for its ability to inhibit the expression of the human SCN9A mRNA in PC3 cells by qPCR against a set of exon-specific primers as follows. [Cell Culture & ASO Treatment] PC3 cells grown in 60 mm culture dish containing 5 mL culture medium were incubated with “SCN-ASO 7” for 24 hours at 0 (negative control), 10, 100 or 1,000 zM. (2 culture dishes per concentration) [RNA Extraction] […] [cDNA Synthesis by One Step RT-PCR] […] NO: 78); and SCN-exon 9_reverse: (5'→3') […] NO: 79)]. […] [Nested qPCR Amplification] […] NO: 80); SCN-exon 4_reverse: (5'→3') […] NO: 81); SCN-exon 5_forward: (5'→3') […] NO: 82); SCN-exon 5_reverse: (5'→3') […] NO: 83); SCN-exon 6_forward: (5'→3') […] NO: 84); SCN-exon 6_reverse: (5'→3') […] NO: 85)]. The PCR reactions were probed with SYBR Green (Takara, Japan). […] “SCN-ASO 3” was evaluated for its ability to inhibit the expression of the full-length SCN9A mRNA in PC3 cells according to the protocol described in “SCN9A Example 2”, unless noted otherwise. “SCN-ASO 8” was evaluated for its ability to inhibit the expression of the full-length SCN9A mRNA in PC3 cells according to the protocol described in “SCN9A Example 2”, unless noted otherwise.

[5] = test system: sodium current in PC3 cells; experiment: CoroNa assay of sodium current in PC3 cells; assay type: cell-based, human; settings: 30 hours
Experimental: Cellular sodium current is measured by patch clamp. As sodium ions enter cell, the intra-cellular sodium ion level increases. The intra-cellular sodium level can be probed using a sodium ion sensitive dye. “CoroNa Green” is a dye with a sodium ion chelator of crown ether type. Upon chelation with a sodium ion, “CoroNa Green” emits green fluorescence. “CoroNa Green” has been used to indirectly measure the intra-cellular sodium level. […] [Proc. Natl. Acad. Sci. USA vol 106(38), 16145-16150 (2009)]
PC3 cells are known to abundantly express the human SCN9A mRNA, although there are other SCN subtypes concomitantly expressed. [Br J. Pharmacol. vol 156, 420-431 (2009)] Thus an inhibition of SCN9A mRNA expression may lead to a considerable reduction of the sodium current in PC3 cells, if the sodium ion current by the Nav1.7 sodium channel subtype occupies a marked portion of the total sodium ion current in PC3 cells. It is note that the SCN9A mRNA encodes the Nav1.7 sodium channel subtype.
“SCN-ASO 7” was evaluated for its ability to inhibit the sodium ion current in PC3 cells using “CoroNa Green” as follows.
[ASO Treatment] PC3 cells grown in 35 mm culture dish containing 2 mL F-12K medium were treated with “SCN-ASO 7” at 0 zM (negative control), 100 zM or 1 aM.
[CoroNa Assay] 30 hours later, the cells were washed with 2 mL HBSS (Hank's Balanced Salt Solution, Cat. Number 14025-092, Life Technologies), and then charged with 2 mL fresh HBSS. Then the cells were treated with 5 μM “CoroNa Green” (Cat. Number C36676, Life Technologies) at 37° C. 30 min later, the cells were washed 2× with 2 mL HBSS, and charged with 2 mL fresh HBSS. The culture dish was mounted on an Olympus fluorescence microscope equipped with a digital video camera to continuously capture the green fluorescence images of the cells. The cells were acutely treated with 100 mM NaCl, and then the changes in fluorescence cellular images were digitally recorded over a period of 3 min. There were about 4 cells per frame on average. The fluorescence intensities from each individual cell were traced at the resolution of a second. The traces of the intracellular fluorescence intensities from individual cells were overlaid and averaged at each time point. The average of the traces from the individual cells of each ASO concentration were plotted as provided in FIG. 30A using ImageJ program (version 1.50i, NIH). The average fluorescence intensity trace was taken as the individual intra-cellular sodium concentration trace for the cells treated with “SCN-ASO 7” at 0 (negative control), 100 or 1,000 zM.
“SCN-ASO 3” was evaluated for its ability to inhibit the sodium current in PC3 cells using “CoroNa Green” according to the protocol described in “SCN9A Example 5”, unless noted otherwise.
“SCN-ASO 8” was evaluated for its ability to inhibit the sodium current in PC3 cells using “CoroNa Green” according to the protocol described in “SCN9A Example 3”, unless noted otherwise.

[6] = test system: rats with diabetes-induced peripheral neuropathic pain (DPNP); experiment: Reversal of allodynia (von Frey) in rats with diabetes-induced peripheral neuropathic pain; assay type: in vivo, rat; settings: 100 pmole/Kg subcutaneous in Days 11, 13, 15, 17 and 19
Experimental: “SCN-ASO 7”, “SCN-ASO 8”, “SCN-ASO 21”, “SCN-ASO 35”, “SCN-ASO 36” and “SCN-ASO 37” were evaluated for their ability to reverse the allodynia in rats with diabetes-induced peripheral neuropathic pain (DPNP). In this example, the six SCN9A ASOs targeting a total of five splice sites were evaluated for their ability to reverse the allodynia induced by diabetic neuropathy in rats.
[Induction of DPNP and Grouping] Diabetes was induced in rats by an intraperitoneal injection of streptozotocin at 60 mg/Kg in Day 0. In Day 10, rats with DPNP were randomly assigned to […] of negative control (vehicle only), “SCN-ASO 7” 100 pmole/Kg, “SCN-ASO 8” 100 pmole/Kg, “SCN-ASO 21” 100 pmole/Kg, “SCN-ASO 35” 100 pmole/Kg, “SCN-ASO 36” 100 pmole/Kg, and “SCN-ASO 37” 100 pmole/Kg. The animals were grouped based on the von Frey scores of individual animals in Day 10. (N=8-9 per group) Allodynia was scored using a set of microfilaments (Touch Test®) according to the “Up & Down” method. [J Neurosci. Methods vol 53(1), 55-63 (1994)]
[ASO Treatment and von Frey Scoring] ASO solutions for injection were prepared by serially diluting aqueous mother stock solutions of the SCN9A ASOs to 100 nM in PBS (phosphate buffered saline). Animals were subcutaneously administered with ASO at 1 mL/Kg in Days 11, 13, 15, 17 and 19. Von Frey scoring was carried out 2 hours post dose in Days 11, 13, 15, 17 and 19. Von Frey scoring was additionally performed in Days 21 and 23 in order to assess the duration of the therapeutic activity after the final dosing. Daily von Frey scores were evaluated for statistical significance by student's t-test against the negative control group (vehicle only, i.e., PBS).

[7] = test system: mdx mice; experiment: Unscheduled death, sacrifice or lymphoma in chronically treated mdx mice; assay type: in vivo, mouse; settings: DMD-ASO 1 50 pmole/Kg, DMD-ASO 2 or DMD-ASO 6 10 pmole/Kg, subcutaneous 2× per week, 66 weeks
Text: [Grouping & ASO Treatment] Male mdx mice (7 weeks old) were randomly assigned to 4 groups of 0 (mdx negative control), 10, 50, and 200 pmole/Kg “DMD-ASO 1” based on individual grip strength scores by grip test. (N=12 per group) A satellite group of 12 male C57BL/6 mice (7 weeks old) was included in this study as the wild type negative control group for the full-length dystrophin expression level.
The 50 and 200 pmole/Kg group subcutaneously received “DMD-ASO 1” as dissolved in PBS, 2× per week until the final sacrifice in Week 43. In the meantime, the 10 pmole/Kg group subcutaneously received “DMD-ASO 1” initially 2× per week during Week 0 to 8, and 3× per week afterwards to increase the ASO exposure.
[Miscellaneous Findings] There were three cases of unscheduled sacrifice or death (Weeks 26, 39 and 43) in the mdx negative control group due to a large mass of muscular lymphoma developed most likely by chronic muscular inflammation.
“DMD-ASO 1”, “DMD-ASO 2” and “DMD-ASO 6” were evaluated for their physiological effects in male mdx mice by long term subcutaneous administration. In this evaluation the animals were not subjected to physical tests requiring muscular stress in order to keep the transcription of the dystrophin gene undisturbed by excessive muscular stimulation.
[Animals & Grouping] Male mdx mice (6 weeks old) were randomly assigned to 4 groups of the mdx negative control (no ASO treatment), “DMD-ASO 1” 50 pmole/Kg, “DMD-ASO 2” […], and “DMD-ASO 6” […] based on the body weight. (N=12-13 per group) 12 male C57BL/6 mice (6 weeks old) were adopted as the wild type (WT) negative control group.
[Injection Solutions & ASO Treatment] Aqueous mother stock solutions of the ASOs were serially diluted in PBS to prepare the injection solutions of 25 nM “DMD-ASO 1” for 50 pmole/Kg “DMD-ASO 1”, 5 nM “DMD-ASO 2” for “DMD-ASO 2” 10 pmole/Kg, and 5 nM “DMD-ASO 6” for “DMD-ASO 6” 10 pmole/Kg. The animals were subcutaneously administered with the injection solutions at 2 mL/Kg, 2× per week.

[8] = test system: serum myoglobin; experiment: Serum myoglobin level in mdx mice; assay type: in vivo; settings: DMD-ASO 1 50 pmole/Kg, DMD-ASO 2 or DMD-ASO 6 10 pmole/Kg, 2× per week, Week 66
Experimental: [Terminal Sacrifice] In Week 48, the animals were subjected to terminal sacrifice for blood sampling. The blood samples were analyzed for the serum level of CK (Creatine Kinase Activity Assay Kit, Cat. Number ab155901, Abcam) and myoglobin (Myoglobin ELISA Kit, Cat. Number ab210965, Abcam) to assess the degree of muscle degradation according to the manufacturer's instructions. Muscle tissues were analyzed by western blot for the full-length dystrophin.
[Terminal Sacrifice] All the survived animals were sacrificed for blood sampling in Week 66 post the grouping. The blood samples were subjected to ELISA assays for serum creatine kinase (CK) and serum myoglobin as described in “DMD Example 6”.

| Substance | Tm [1] | Tm [2] | ΔTm (Tm value - Tm value of PNA 10-1) [1] | ΔTm (Tm value - Tm value of PNA 10-1) [2] | also measured |
| --- | --- | --- | --- | --- | --- |
| Fmoc-GTA-GAT-CAC-T-NH2 (GTAGATCACT; all peptide nucleic acid (PNA), 5' {Fmoc}, 3' {NH2}; model 10-mer peptide nucleic acid written N to C) [PNA 10-1, reference compound] | 51 °C | 55 °C | – | – | – |
| Fmoc-GTA(5)-GA(5)T-C(1O2)AC-T-NH2 (GTAGATCACT; all peptide nucleic acid (PNA), [A(5)] at 3, 5, [C(1O2)] at 7, 5' {Fmoc}, 3' {NH2}; model 10-mer peptide nucleic acid written N to C) [PNA 10-7] | 69 °C | 69 °C | +18 °C | +18 °C | – |
| Fmoc-TA(5)A-A(5)TA(5)-CGC(1O2)-AA(5)A-A(5)AC-A(5)A-NH2 (TAAATACGCAAAAACAA; chemistry not fully specified) [SCN-ASO 8] | – | – | – | – | Tm Value, 10-mer DNA against C-Terminal [3]: 68.6 °C; Tm Value, 10-mer DNA against N-Terminal [3]: 74.0 °C; decrease of expression levels of SCN9A exons 4-6 (SYBR Green) ([4]; 10 zM): 50-70%; decrease of expression levels of SCN9A exons 4-6 (SYBR Green) ([4]; 100 zM): 70-80%; decrease of sodium current (CoroNa) ([5]; PC3 cells, 100 zM): 30%; decrease of sodium current / sodium channel activity (CoroNa) ([5]; PC3 cells, 1,000 zM): 31%; average cellular fluorescence intensity (CoroNa Green) ([5]; PC3 cells, 1,000 zM, at 100 sec after 100 mM NaCl): 89.7 arbitrary unit; maximum therapeutic efficacy based on the von Frey scores in Day 19 [6]: 61% |
| Fmoc-GTA(5)-GA(5)T-CA(5)C-T-NH2 (GTAGATCACT; all peptide nucleic acid (PNA), [A(5)] at 3, 5, 8, 5' {Fmoc}, 3' {NH2}; model 10-mer peptide nucleic acid written N to C) [PNA 10-4] | 66 °C | 66 °C | +15 °C | +11 °C | – |
| Fethoc-C(12)TC-GG(6)C-TTA(6)-CC(1O2)T-GA(6)A-A(6)TT-NH2 (antisense CTCGGCTTACCTGAAATT; Fethoc N-cap, C-terminal amide, chemistry not fully specified) [DMD-ASO 6] | – | – | – | – | premature deaths (unscheduled death or sacrifice) [7]: three premature deaths; serum myoglobin level smaller than the mdx negative control group by [8]: 68% |
